Values joined by “and” are separate entries in the source; they are usually repeats but may differ in a detail not shown here. Equal values may be shown once.
Tested on: HCV pseudoparticles
Experiment: HCV pseudoparticle (HCVpp) entry assay in Huh7 hepatoma cells, luciferase readout
Type: cell-based, hepatitis C virus
Method: HCV pseudotype particle generation. Single cycle HCV pseudoparticles are composed of a replication-defective HIV genome and HCV envelope proteins. These pseudoparticles were made by transfecting 293T cells with 5 ug of each pNL43E-R-luc (Chen et al., J. Virol. 68(2):654-60 (1994)) and plasmid expressing HCV envelope proteins pCMV/E1-2 with profection transfection kit from Promega (Madison, Wis.). The medium was refreshed 12-24 hours after transfection and supernatant was collected 48 hours after transfection. The supernatant from a transfection of only pNL43E-R-luc was used each time as a control for non specific entry events.
Infection of hepatoma cell lines with HCV pseudotype particles and screen for inhibitory peptides. The hepatoma cells, Huh7, was seeded at 8000 cells in 90 ul medium in 96-well plate. In the case of the inhibitor screen, the inhibitor was incubated with cells for one hour at 37° C. and then 50 ul viral supernatant was added to the cells 24 hours after seeding. The viral stock was pre-tittered and diluted to yield approximately 10,000 to 20,000 RLU. The cells were incubated at 37° C. with 5% CO2 for additional 72 hours and were harvested for luciferase assay. Peptide stocks were prepared in 100% DMSO at 10 mg/ml and were first screened at 100 ug/ml and then a dose responsive curve was generated with 10 points 3-fold titration starting from 100 ug/ml.
The peptide of SEQ ID NO: 77 was first serial diluted by the factor of 3 in 100% DMSO from 100 ug/ml and then transferred to the assay plates at 100-fold dilution. The peptide was first incubated with cells and HCVpp (A) or HIVpp (B), respectively, for 30 minutes at […] in this experiment. Then, the medium containing the peptide was removed from the cells and virus with peptide was added to the cells. Cells were incubated for 72 hours and then were harvested for luciferase assay. Two separate trials were performed.
In addition, the peptide of SEQ ID NO: 77 was mutated at several positions and assayed in the HCV entry assay discussed above. […] The assays were performed essentially as described above.

[1] = 0.1 nM of peptide (printed for three rows), two values per peptide and row
[2] = 0.3 nM of peptide, two values per peptide
[3] = 1 nM of peptide, two values per peptide
[4] = 3 nM of peptide, two values per peptide
[5] = 10 nM of peptide, two values per peptide
[6] = 30 nM of peptide, two values per peptide
[7] = 100 nM of peptide, two values per peptide
[8] = 300 nM of peptide, two values per peptide
[9] = 10000 nM of peptide, two values per peptide
[10] = 30000 nM of peptide, two values per peptide

| Substance | % control (HCVpp entry), proline scanning [1] | % control (HCVpp entry), proline scanning [2] | % control (HCVpp entry), proline scanning [3] | % control (HCVpp entry), proline scanning [4] | % control (HCVpp entry), proline scanning [5] | % control (HCVpp entry), proline scanning [6] | % control (HCVpp entry), proline scanning [7] | % control (HCVpp entry), proline scanning [8] | % control (HCVpp entry), proline scanning [9] | % control (HCVpp entry), proline scanning [10] | also measured |
| --- | --- | --- | --- | --- | --- | --- | --- | --- | --- | --- | --- |
| A-I-K-W-E-Y-V-L-L-L-F-K-L (AIKWEYVLLLFKL; HCV peptide) [SEQ ID NO: 136] | – | – | – | – | – | – | – | – | – | – | % control (HCVpp entry), lysine scanning [1]: 67 % control and 81 % control and 82 % control and 94 % control and 116 % control and 108 % control; % control (HCVpp entry), lysine scanning [2]: 103 % control and 70 % control; % control (HCVpp entry), lysine scanning [3]: 71 % control and 90 % control; % control (HCVpp entry), lysine scanning [4]: 76 % control and 98 % control; % control (HCVpp entry), lysine scanning [5]: 80 % control and 71 % control; % control (HCVpp entry), lysine scanning [6]: 65 % control and 84 % control; % control (HCVpp entry), lysine scanning [7]: 98 % control and 84 % control; % control (HCVpp entry), lysine scanning [8]: 81 % control and 84 % control; % control (HCVpp entry), lysine scanning [9]: 34 % control and 68 % control |
| A-I-K-W-E-Y-V-L-L-L-F-L-A [SEQ ID NO: 97] | – | – | – | – | – | – | – | – | – | – | % control (HCVpp entry), alanine scanning [1]: 80 % control and 101 % control and 105 % control and 102 % control and 95 % control and 97 % control; % control (HCVpp entry), alanine scanning [2]: 72 % control and 102 % control; % control (HCVpp entry), alanine scanning [3]: 76 % control and 92 % control; % control (HCVpp entry), alanine scanning [4]: 72 % control and 92 % control; % control (HCVpp entry), alanine scanning [5]: 79 % control and 69 % control; % control (HCVpp entry), alanine scanning [6]: 55 % control and 80 % control; % control (HCVpp entry), alanine scanning [7]: 46 % control and 51 % control; % control (HCVpp entry), alanine scanning [8]: 30 % control and 47 % control; % control (HCVpp entry), alanine scanning [9]: 19 % control and 37 % control; % control (HCVpp entry), alanine scanning [10]: 53 % control and 50 % control; % of control at ~30 uM (percentage of hepatitis C virus cellular entry at 30 μM peptide vs uninhibited control): 24% |
| A-I-K-W-E-Y-V-L-L-L-F-L-K [SEQ ID NO: 137] | – | – | – | – | – | – | – | – | – | – | % control (HCVpp entry), lysine scanning [1]: 72 % control and 123 % control and 80 % control and 82 % control and 103 % control and 135 % control; % control (HCVpp entry), lysine scanning [2]: 58 % control and 92 % control; % control (HCVpp entry), lysine scanning [3]: 80 % control and 106 % control; % control (HCVpp entry), lysine scanning [4]: 82 % control and 97 % control; % control (HCVpp entry), lysine scanning [5]: 100 % control and 89 % control; % control (HCVpp entry), lysine scanning [6]: 78 % control and 94 % control; % control (HCVpp entry), lysine scanning [7]: 68 % control and 74 % control; % control (HCVpp entry), lysine scanning [8]: 54 % control and 77 % control; % control (HCVpp entry), lysine scanning [9]: 23 % control and 28 % control |
| A-I-K-W-E-Y-V-L-L-L-F-L-L [SEQ ID NO: 106] | – | – | – | – | – | – | – | – | – | – | HCVpp % inh (truncated peptides tested at 50 uM in 1% DMSO): 92% |
| A-I-K-W-E-Y-V-L-L-L-F-L-P [SEQ ID NO: 127] | 90 % control and 86 % control and 75 % control and 122 % control and 113 % control | 84 % control and 81 % control | 71 % control and 85 % control | 66 % control and 53 % control | 102 % control and 74 % control | 78 % control and 83 % control | 77 % control and 74 % control | 63 % control and 72 % control | 29 % control and 27 % control | 57 % control and 29 % control | – |
| A-I-K-W-E-Y-V-L-L-L-F-P-L (AIKWEYVLLLFPL; HCV peptide) [SEQ ID NO: 126] | 83 % control and 66 % control and 89 % control and 87 % control and 104 % control and 119 % control | 88 % control and 91 % control | 88 % control and 93 % control | 98 % control and 89 % control | 86 % control and 76 % control | 83 % control and 82 % control | 68 % control and 81 % control | 72 % control and 85 % control | 43 % control and 44 % control | 55 % control and 80 % control | – |
| A-I-K-W-E-Y-V-L-L-L-K-L-L (AIKWEYVLLLKLL; HCV peptide) [SEQ ID NO: 135] | – | – | – | – | – | – | – | – | – | – | % control (HCVpp entry), lysine scanning [2]: 72 % control and 99 % control; % control (HCVpp entry), lysine scanning [3]: 76 % control and 84 % control; % control (HCVpp entry), lysine scanning [4]: 67 % control and 74 % control; % control (HCVpp entry), lysine scanning [5]: 79 % control and 104 % control; % control (HCVpp entry), lysine scanning [6]: 90 % control and 89 % control; % control (HCVpp entry), lysine scanning [7]: 75 % control and 107 % control; % control (HCVpp entry), lysine scanning [8]: 87 % control and 70 % control; % control (HCVpp entry), lysine scanning [9]: 57 % control and 43 % control; % control (HCVpp entry), lysine scanning [10]: 37 % control and 29 % control |
| A-I-K-W-E-Y-V-L-L-L-P-L-L (AIKWEYVLLLPLL; HCV peptide) [SEQ ID NO: 125] | 99 % control and 91 % control and 92 % control and 111 % control and 101 % control and 95 % control | 104 % control | 99 % control and 75 % control | 82 % control and 85 % control | 109 % control and 97 % control | 102 % control and 80 % control | 58 % control and 60 % control | 76 % control and 63 % control | 54 % control and 73 % control | 59 % control and 68 % control | – |
| A-I-K-W-E-Y-V-L-L-P-F-L-L (AIKWEYVLLPFLL; HCV peptide) [SEQ ID NO: 124] | 87 % control and 98 % control and 89 % control and 104 % control and 109 % control and 97 % control | 74 % control and 88 % control | 89 % control and 102 % control | 80 % control and 86 % control | 67 % control and 102 % control | 48 % control and 71 % control | 66 % control and 83 % control | 85 % control and 68 % control | 85 % control and 60 % control | 98 % control and 67 % control | – |
| A-I-K-W-E-Y-V-L-P-L-F-L-L (AIKWEYVLPLFLL; HCV peptide) [SEQ ID NO: 123] | 78 % control and 81 % control and 104 % control and 86 % control and 117 % control and 94 % control | 80 % control and 91 % control | 108 % control and 77 % control | 92 % control and 78 % control | 78 % control and 76 % control | 74 % control and 75 % control | 72 % control and 61 % control | 41 % control and 44 % control | 61 % control and 51 % control | 31 % control and 49 % control | – |
| A-I-K-W-E-Y-V-P-L-L-F-L-L (AIKWEYVPLLFLL; HCV peptide) [SEQ ID NO: 122] | 81 % control and 70 % control and 89 % control and 86 % control and 115 % control and 111 % control | 105 % control and 83 % control | 73 % control and 100 % control | 106 % control and 80 % control | 85 % control and 67 % control | 70 % control and 113 % control | 75 % control and 59 % control | 76 % control and 53 % control | 54 % control and 43 % control | – | – |

— patent US20100119483A1, “PEPTIDE VIRAL ENTRY INHIBITORS” (Schering Corporation, priority 2004, published 2010)
